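Step 1: Grow cells in 96-well plates. Step 2: Expose to compound for 48 hours at 5 concentrations. Step 3: Interpolate endpoints linearly; if unreached, use highest concentration. At the TGI there is no net growth.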
Experiments:
Test in all cases: NCI tumour cell line growth inhibition, 48 h
[1] = tested on: DLD-1 colon
[2] = tested on: LOX IMVI melanoma
[3] = tested on: UO-31 renal
[4] = tested on: SNB-78 CNS
[5] = tested on: SK-MEL-28 melanoma
[6] = tested on: MALME-3M melanoma
[7] = tested on: UACC-257 melanoma
[8] = tested on: UACC-62 melanoma
[9] = tested on: DMS 114 small cell lung
[10] = tested on: SK-OV-3 ovarian
[11] = tested on: SW-620 colon
[12] = tested on: TK-10 renal
[13] = tested on: EKVX NSCLC
[14] = tested on: A549 NSCLC
[15] = tested on: CCRF-CEM leukemia
[16] = tested on: DMS 273 small cell lung
[17] = tested on: XF 498 CNS
[18] = tested on: RPMI-8226 leukemia
[19] = tested on: IGROV1 ovarian
[20] = tested on: SN12C renal
[21] = tested on: ACHN renal
[22] = tested on: NCI-H460 lung
[23] = tested on: HCT-116 colon
[24] = tested on: OVCAR-8 ovarian
[25] = tested on: KM12 colon
[26] = tested on: HL-60(TB) leukemia
[27] = tested on: SK-MEL-2 melanoma
[28] = tested on: RXF 393 renal
[29] = tested on: 786-0 renal
[30] = tested on: HCC-2998 colon
[31] = tested on: OVCAR-3 ovarian
[32] = tested on: CAKI-1 renal
[33] = tested on: SNB-19 CNS
[34] = tested on: KM20L2 colon
[35] = tested on: SNB-75 CNS
[36] = tested on: U251 CNS
[37] = tested on: HOP-92 NSCLC
[38] = tested on: HCT-15 colon
[39] = tested on: COLO 205 colon
[40] = tested on: RXF-631 renal
[41] = tested on: SK-MEL-5 melanoma
[42] = tested on: HOP-62 NSCLC
[43] = tested on: HT29 colon
[44] = tested on: MOLT-4 leukemia
[45] = tested on: NCI-H226 lung
[46] = tested on: K-562 leukemia
[47] = tested on: M14 melanoma
[48] = tested on: HOP-18 NSCLC
[49] = tested on: OVCAR-5 ovarian
[50] = tested on: M19-MEL melanoma
[51] = tested on: SF-295 CNS
[52] = tested on: OVCAR-4 ovarian
[53] = tested on: LXFL 529 NSCLC
[54] = tested on: A498 renal
[55] = tested on: SF-268 CNS
[56] = tested on: NCI-H23 lung
[57] = tested on: NCI-H522 lung
[58] = tested on: SF-539 CNS
[59] = tested on: SR leukemia

## CC1(C)C(O)OC(O)C1(C)C (stereo not given)
[1]
  TGI: > 100 µM
[2]
  TGI: > 100 µM
[3]
  TGI: > 100 µM
[4]
  TGI: > 100 µM
[5]
  TGI: > 100 µM
[6]
  TGI: > 100 µM
[7]
  TGI: > 100 µM
[8]
  TGI: > 100 µM
[9]
  TGI: > 100 µM
[10]
  TGI: > 100 µM
[11]
  TGI: > 100 µM
[12]
  TGI: > 100 µM
[13]
  TGI: > 100 µM
[14]
  TGI: > 100 µM
[15]
  TGI: > 100 µM
[16]
  TGI: > 100 µM
[17]
  TGI: > 100 µM
[18]
  TGI: > 100 µM
[19]
  TGI: > 100 µM
[20]
  TGI: > 100 µM
[21]
  TGI: > 100 µM
[22]
  TGI: > 100 µM
[23]
  TGI: > 100 µM
[24]
  TGI: > 100 µM
[25]
  TGI: > 100 µM
[26]
  TGI: > 100 µM
[27]
  TGI: > 100 µM
[28]
  TGI: 94.6 µM
[29]
  TGI: > 100 µM
[30]
  TGI: > 100 µM
[31]
  TGI: > 100 µM
[32]
  TGI: > 100 µM
[33]
  TGI: > 100 µM
[34]
  TGI: > 100 µM
[35]
  TGI: > 100 µM
[36]
  TGI: > 100 µM
[37]
  TGI: > 100 µM
[38]
  TGI: > 100 µM
[39]
  TGI: > 100 µM
[40]
  TGI: > 100 µM
[41]
  TGI: > 100 µM
[42]
  TGI: > 100 µM
[43]
  TGI: > 100 µM
[44]
  TGI: > 100 µM
[45]
  TGI: > 100 µM
[46]
  TGI: > 100 µM
[47]
  TGI: > 100 µM
[48]
  TGI: > 100 µM
[49]
  TGI: > 100 µM
[50]
  TGI: > 100 µM
[51]
  TGI: > 100 µM
[52]
  TGI: > 100 µM
[53]
  TGI: > 100 µM

## O=C(/C=C/c1ccccc1O)C(c1ccccc1)c1ccccc1
[1]
  TGI: > 100 µM
[2]
  TGI: 62.3 µM
[3]
  TGI: > 100 µM
[4]
  TGI: > 100 µM
[5]
  TGI: > 100 µM
[6]
  TGI: > 100 µM
[7]
  TGI: > 100 µM
[8]
  TGI: > 100 µM
[9]
  TGI: > 100 µM
[10]
  TGI: > 100 µM
[11]
  TGI: 27.6 µM
[12]
  TGI: > 100 µM
[13]
  TGI: > 100 µM
[14]
  TGI: > 100 µM
[15]
  TGI: > 100 µM
[16]
  TGI: > 100 µM
[17]
  TGI: > 100 µM
[54]
  TGI: > 100 µM
[18]
  TGI: > 100 µM
[19]
  TGI: > 100 µM
[20]
  TGI: > 100 µM
[21]
  TGI: > 100 µM
[22]
  TGI: > 100 µM
[23]
  TGI: > 100 µM
[24]
  TGI: > 100 µM
[25]
  TGI: > 100 µM
[55]
  TGI: > 100 µM
[27]
  TGI: > 100 µM
[28]
  TGI: > 100 µM
[29]
  TGI: > 100 µM
[30]
  TGI: > 100 µM
[56]
  TGI: > 100 µM
[31]
  TGI: > 100 µM
[57]
  TGI: > 100 µM
[32]
  TGI: > 100 µM
[33]
  TGI: > 100 µM
[58]
  TGI: > 100 µM
[34]
  TGI: > 100 µM
[35]
  TGI: 75.1 µM
[36]
  TGI: > 100 µM
[37]
  TGI: > 100 µM
[38]
  TGI: > 100 µM
[59]
  TGI: > 100 µM
[39]
  TGI: > 100 µM
[40]
  TGI: > 100 µM
[41]
  TGI: > 100 µM
[42]
  TGI: > 100 µM
[43]
  TGI: > 100 µM
[44]
  TGI: > 100 µM
[45]
  TGI: > 100 µM
[46]
  TGI: > 100 µM
[47]
  TGI: > 100 µM
[48]
  TGI: > 100 µM
[49]
  TGI: > 100 µM
[50]
  TGI: > 100 µM
[51]
  TGI: > 100 µM
[52]
  TGI: > 100 µM
[53]
  TGI: > 100 µM

## COc1ccc(O)cc1C=O
[1]
  TGI: > 100 µM
[2]
  TGI: > 100 µM
[3]
  TGI: > 100 µM
[4]
  TGI: > 100 µM
[5]
  TGI: > 100 µM
[6]
  TGI: > 100 µM
[7]
  TGI: > 100 µM
[8]
  TGI: > 100 µM
[9]
  TGI: > 100 µM
[10]
  TGI: > 100 µM
[11]
  TGI: > 100 µM
[12]
  TGI: > 100 µM
[13]
  TGI: > 100 µM
[14]
  TGI: > 100 µM
[15]
  TGI: > 100 µM
[16]
  TGI: > 100 µM
[17]
  TGI: > 100 µM
[54]
  TGI: > 100 µM
[18]
  TGI: > 100 µM
[19]
  TGI: > 100 µM
[20]
  TGI: > 100 µM
[21]
  TGI: > 100 µM
[22]
  TGI: > 100 µM
[23]
  TGI: > 100 µM
[24]
  TGI: > 100 µM
[25]
  TGI: > 100 µM
[26]
  TGI: 54.9 µM
[55]
  TGI: > 100 µM
[28]
  TGI: > 100 µM
[29]
  TGI: > 100 µM
[30]
  TGI: > 100 µM
[56]
  TGI: > 100 µM
[31]
  TGI: > 100 µM
[33]
  TGI: > 100 µM
[58]
  TGI: > 100 µM
[34]
  TGI: > 100 µM
[36]
  TGI: > 100 µM
[37]
  TGI: > 100 µM
[38]
  TGI: > 100 µM
[59]
  TGI: 92.3 µM
[39]
  TGI: > 100 µM
[40]
  TGI: > 100 µM
[41]
  TGI: > 100 µM
[42]
  TGI: > 100 µM
[43]
  TGI: > 100 µM
[44]
  TGI: > 100 µM
[46]
  TGI: > 100 µM
[47]
  TGI: > 100 µM
[48]
  TGI: > 100 µM
[49]
  TGI: > 100 µM
[50]
  TGI: > 100 µM
[51]
  TGI: > 100 µM
[52]
  TGI: > 100 µM
[53]
  TGI: > 100 µM

Reference: PubChem BioAssay (NCI)
